Test results from the supplement of paper PMC10733146.

Key:
Assay in all cases: viability relative to DMSO control (fraction); higher = less drug effect (more viable cells)
Settings in all cases: 48 h
Palbociclib = compound: CC(=O)c1c(C)c2cnc(Nc3ccc(N4CCNCC4)cn3)nc2n(C2CCCC2)c1=O [Palbociclib]
Summary of the method: (§1)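 Cells were incubated for 48 h at 37 °C and 5% CO2 in RPMI-1640 with penicillin/streptomycin, L-glutamine and human serum, at 4 × 10^4 cells per well in 384-well plates with compounds pre-plated at five concentrations, one well each. These were primary mononuclear tumour cells, fresh or cryopreserved, Ficoll-isolated from blood or bone marrow or obtained from processed lymph node. Viability values are CellTiter-Glo luminescence relative to the median of 16 inner DMSO wells.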

Barasertib = compound: CCN(CCCOc1ccc2c(Nc3cc(CC(=O)Nc4cccc(F)c4)[nH]n3)ncnc2c1)CCOP(=O)(O)O [Barasertib]
Summary of the method: as §1

EPZ-6438 = compound: CCN(c1cc(-c2ccc(CN3CCOCC3)cc2)cc(C(=O)NCc2c(C)cc(C)[nH]c2=O)c1C)C1CCOCC1 [EPZ-6438]
Summary of the method: as §1

SGC 0946 = compound: CC(C)N(CCCNC(=O)Nc1ccc(C(C)(C)C)cc1)C[C@H]1O[C@@H](n2cc(Br)c3c(N)ncnc32)[C@H](O)[C@@H]1O [SGC 0946]
Summary of the method: as §1

[1] = compound: O=C(Nc1ccc2[nH]nc(-c3ccncc3)c2c1)[C@@H]1CCN(CC(=O)N2CCN(c3ccc(-c4ncccn4)cc3)CC2)C1
Summary of the method: as §1

Thalidomide = compound: O=C1CCC(N2C(=O)c3ccccc3C2=O)C(=O)N1 [Thalidomide]
Summary of the method: as §1

Entospletinib = compound: c1cn2cc(-c3ccc4cn[nH]c4c3)nc(Nc3ccc(N4CCOCC4)cc3)c2n1 [Entospletinib]
Summary of the method: as §1

Filgotinib = compound: O=C(Nc1nc2cccc(-c3ccc(CN4CCS(=O)(=O)CC4)cc3)n2n1)C1CC1 [Filgotinib]
Summary of the method: as §1

Chlorambucil = compound: O=C(O)CCCc1ccc(N(CCCl)CCCl)cc1 [Chlorambucil]
Summary of the method: as §1

Everolimus = compound: CO[C@H]1C[C@@H]2CC[C@@H](C)[C@@](O)(O2)C(=O)C(=O)N2CCCC[C@H]2C(=O)O[C@H]([C@H](C)C[C@@H]2CC[C@@H](OCCO)[C@H](OC)C2)CC(=O)[C@H](C)/C=C(\C)[C@@H](O)[C@@H](OC)C(=O)[C@H](C)C[C@H](C)/C=C/C=C/C=C/1C [Everolimus]
Summary of the method: as §1

Venetoclax = compound: CC1(C)CCC(CN2CCN(c3ccc(C(=O)NS(=O)(=O)c4ccc(NCC5CCOCC5)c([N+](=O)[O-])c4)c(Oc4cnc5[nH]ccc5c4)c3)CC2)=C(c2ccc(Cl)cc2)C1 [Venetoclax]
Summary of the method: as §1

Etoposide = compound: COc1cc([C@@H]2c3cc4c(cc3[C@@H](O[C@@H]3O[C@@H]5CO[C@@H](C)O[C@H]5[C@H](O)[C@H]3O)[C@H]3COC(=O)[C@H]23)OCO4)cc(OC)c1O [Etoposide]
Summary of the method: as §1

Duvelisib = compound: C[C@H](Nc1ncnc2nc[nH]c12)c1cc2cccc(Cl)c2c(=O)n1-c1ccccc1 [Duvelisib]
Summary of the method: as §1

primary DLBCL patient cells (S082)
viability (Palbociclib; 0.024 µM): 0.976 | viability (Palbociclib; 0.12 µM): 0.92 | viability (Palbociclib; 0.6 µM): 0.847 | viability (Palbociclib; 3 µM): 0.848 | viability (Palbociclib; 15 µM): 0.712 | viability (Barasertib; 0.0008 µM): 0.93 | viability (Barasertib; 0.004 µM): 0.902 | viability (Barasertib; 0.02 µM): 0.881 | viability (Barasertib; 0.1 µM): 0.945 | viability (Barasertib; 0.5 µM): 0.979 | viability (EPZ-6438; 0.024 µM): 0.978 | viability (EPZ-6438; 0.12 µM): 0.97 | viability (EPZ-6438; 0.6 µM): 0.962 | viability (EPZ-6438; 3 µM): 0.896 | viability (EPZ-6438; 15 µM): 0.905 | viability (SGC 0946; 0.024 µM): 0.899 | viability (SGC 0946; 0.12 µM): 0.975 | viability (SGC 0946; 0.6 µM): 0.932 | viability (SGC 0946; 3 µM): 0.91 | viability (SGC 0946; 15 µM): 0.834 | viability ([1]; 0.008 µM): 0.875 | viability ([1]; 0.04 µM): 0.771 | viability ([1]; 0.2 µM): 0.809 | viability ([1]; 1 µM): 0.79 | viability ([1]; 5 µM): 0.743 | viability (Thalidomide; 0.032 µM): 0.969 | viability (Thalidomide; 0.16 µM): 0.938 | viability (Thalidomide; 0.8 µM): 0.969 | viability (Thalidomide; 4 µM): 0.927 | viability (Thalidomide; 20 µM): 1.01 | viability (Entospletinib; 0.024 µM): 1.04 | viability (Entospletinib; 0.12 µM): 1.03 | viability (Entospletinib; 0.6 µM): 0.89 | viability (Entospletinib; 3 µM): 0.98 | viability (Entospletinib; 15 µM): 0.926 | viability (Filgotinib; 0.024 µM): 0.971 | viability (Filgotinib; 0.12 µM): 0.976 | viability (Filgotinib; 0.6 µM): 1.03 | viability (Filgotinib; 3 µM): 0.933 | viability (Filgotinib; 15 µM): 0.758 | viability (Chlorambucil; 0.032 µM): 1.07 | viability (Chlorambucil; 0.16 µM): 0.989 | viability (Chlorambucil; 0.8 µM): 1.06 | viability (Chlorambucil; 4 µM): 1 | viability (Chlorambucil; 20 µM): 0.831 | viability (Everolimus; 0.0032 µM): 0.892 | viability (Everolimus; 0.016 µM): 0.816 | viability (Everolimus; 0.08 µM): 0.841 | viability (Everolimus; 0.4 µM): 0.782 | viability (Everolimus; 2 µM): 0.807 | viability (Venetoclax; 0.00064 µM): 1.01 | viability (Venetoclax; 0.0032 µM): 0.876 | viability (Venetoclax; 0.016 µM): 0.547 | viability (Venetoclax; 0.08 µM): 0.143 | viability (Venetoclax; 0.4 µM): 0.0409 | viability (Etoposide; 0.032 µM): 1.08 | viability (Etoposide; 0.16 µM): 1.02 | viability (Etoposide; 0.8 µM): 0.974 | viability (Etoposide; 4 µM): 1 | viability (Etoposide; 20 µM): 0.664 | viability (Duvelisib; 0.0016 µM): 0.758 | viability (Duvelisib; 0.008 µM): 0.689 | viability (Duvelisib; 0.04 µM): 0.679 | viability (Duvelisib; 0.2 µM): 0.65 | viability (Duvelisib; 1 µM): 0.619

primary FL patient cells (S022)
viability (Palbociclib; 0.024 µM): 1.07 | viability (Palbociclib; 0.12 µM): 0.973 | viability (Palbociclib; 0.6 µM): 0.986 | viability (Palbociclib; 3 µM): 0.865 | viability (Palbociclib; 15 µM): 0.33 | viability (Barasertib; 0.0008 µM): 0.844 | viability (Barasertib; 0.004 µM): 0.871 | viability (Barasertib; 0.02 µM): 0.904 | viability (Barasertib; 0.1 µM): 0.972 | viability (Barasertib; 0.5 µM): 0.935 | viability (EPZ-6438; 0.024 µM): 1.08 | viability (EPZ-6438; 0.12 µM): 1.04 | viability (EPZ-6438; 0.6 µM): 0.978 | viability (EPZ-6438; 3 µM): 0.997 | viability (EPZ-6438; 15 µM): 0.892 | viability (SGC 0946; 0.024 µM): 0.902 | viability (SGC 0946; 0.12 µM): 0.937 | viability (SGC 0946; 0.6 µM): 0.808 | viability (SGC 0946; 3 µM): 0.9 | viability (SGC 0946; 15 µM): 0.484 | viability ([1]; 0.008 µM): 0.888 | viability ([1]; 0.04 µM): 0.929 | viability ([1]; 0.2 µM): 0.895 | viability ([1]; 1 µM): 0.911 | viability ([1]; 5 µM): 0.96 | viability (Thalidomide; 0.032 µM): 0.988 | viability (Thalidomide; 0.16 µM): 1.09 | viability (Thalidomide; 0.8 µM): 0.952 | viability (Thalidomide; 4 µM): 0.921 | viability (Thalidomide; 20 µM): 0.961 | viability (Entospletinib; 0.024 µM): 1.01 | viability (Entospletinib; 0.12 µM): 1.05 | viability (Entospletinib; 0.6 µM): 1.07 | viability (Entospletinib; 3 µM): 0.933 | viability (Entospletinib; 15 µM): 0.964 | viability (Filgotinib; 0.024 µM): 0.984 | viability (Filgotinib; 0.12 µM): 0.944 | viability (Filgotinib; 0.6 µM): 1.01 | viability (Filgotinib; 3 µM): 0.91 | viability (Filgotinib; 15 µM): 0.568 | viability (Chlorambucil; 0.032 µM): 1.08 | viability (Chlorambucil; 0.16 µM): 0.896 | viability (Chlorambucil; 0.8 µM): 1.08 | viability (Chlorambucil; 4 µM): 1.04 | viability (Chlorambucil; 20 µM): 0.582 | viability (Everolimus; 0.0032 µM): 0.943 | viability (Everolimus; 0.016 µM): 0.933 | viability (Everolimus; 0.08 µM): 0.911 | viability (Everolimus; 0.4 µM): 0.882 | viability (Everolimus; 2 µM): 0.966 | viability (Venetoclax; 0.00064 µM): 1.01 | viability (Venetoclax; 0.0032 µM): 0.894 | viability (Venetoclax; 0.016 µM): 0.67 | viability (Venetoclax; 0.08 µM): 0.313 | viability (Venetoclax; 0.4 µM): 0.066 | viability (Etoposide; 0.032 µM): 0.967 | viability (Etoposide; 0.16 µM): 0.975 | viability (Etoposide; 0.8 µM): 0.921 | viability (Etoposide; 4 µM): 0.987 | viability (Etoposide; 20 µM): 0.783 | viability (Duvelisib; 0.0016 µM): 0.949 | viability (Duvelisib; 0.008 µM): 0.933 | viability (Duvelisib; 0.04 µM): 0.988 | viability (Duvelisib; 0.2 µM): 0.82 | viability (Duvelisib; 1 µM): 0.873

primary FL patient cells (S087)
viability (Palbociclib; 0.024 µM): 0.979 | viability (Palbociclib; 0.12 µM): 0.917 | viability (Palbociclib; 0.6 µM): 0.947 | viability (Palbociclib; 3 µM): 0.788 | viability (Palbociclib; 15 µM): 0.123 | viability (Barasertib; 0.0008 µM): 0.918 | viability (Barasertib; 0.004 µM): 0.907 | viability (Barasertib; 0.02 µM): 0.967 | viability (Barasertib; 0.1 µM): 1.03 | viability (Barasertib; 0.5 µM): 1.01 | viability (EPZ-6438; 0.024 µM): 1.02 | viability (EPZ-6438; 0.12 µM): 1.01 | viability (EPZ-6438; 0.6 µM): 1.03 | viability (EPZ-6438; 3 µM): 0.993 | viability (EPZ-6438; 15 µM): 0.93 | viability (SGC 0946; 0.024 µM): 1.02 | viability (SGC 0946; 0.12 µM): 0.957 | viability (SGC 0946; 0.6 µM): 0.923 | viability (SGC 0946; 3 µM): 0.967 | viability (SGC 0946; 15 µM): 0.645 | viability ([1]; 0.008 µM): 0.961 | viability ([1]; 0.04 µM): 0.903 | viability ([1]; 0.2 µM): 0.943 | viability ([1]; 1 µM): 0.886 | viability ([1]; 5 µM): 0.851 | viability (Thalidomide; 0.032 µM): 0.986 | viability (Thalidomide; 0.16 µM): 0.925 | viability (Thalidomide; 0.8 µM): 0.951 | viability (Thalidomide; 4 µM): 0.996 | viability (Thalidomide; 20 µM): 0.985 | viability (Entospletinib; 0.024 µM): 1.09 | viability (Entospletinib; 0.12 µM): 1.01 | viability (Entospletinib; 0.6 µM): 1.04 | viability (Entospletinib; 3 µM): 1.06 | viability (Entospletinib; 15 µM): 1.02 | viability (Filgotinib; 0.024 µM): 1.04 | viability (Filgotinib; 0.12 µM): 0.977 | viability (Filgotinib; 0.6 µM): 1 | viability (Filgotinib; 3 µM): 0.916 | viability (Filgotinib; 15 µM): 0.737 | viability (Chlorambucil; 0.032 µM): 0.991 | viability (Chlorambucil; 0.16 µM): 0.961 | viability (Chlorambucil; 0.8 µM): 0.955 | viability (Chlorambucil; 4 µM): 0.925 | viability (Chlorambucil; 20 µM): 0.706 | viability (Everolimus; 0.0032 µM): 0.882 | viability (Everolimus; 0.016 µM): 0.851 | viability (Everolimus; 0.08 µM): 0.859 | viability (Everolimus; 0.4 µM): 0.846 | viability (Everolimus; 2 µM): 0.867 | viability (Venetoclax; 0.00064 µM): 1.01 | viability (Venetoclax; 0.0032 µM): 0.938 | viability (Venetoclax; 0.016 µM): 0.74 | viability (Venetoclax; 0.08 µM): 0.364 | viability (Venetoclax; 0.4 µM): 0.0932 | viability (Etoposide; 0.032 µM): 1.02 | viability (Etoposide; 0.16 µM): 0.974 | viability (Etoposide; 0.8 µM): 0.916 | viability (Etoposide; 4 µM): 0.981 | viability (Etoposide; 20 µM): 0.765 | viability (Duvelisib; 0.0016 µM): 0.849 | viability (Duvelisib; 0.008 µM): 0.811 | viability (Duvelisib; 0.04 µM): 0.764 | viability (Duvelisib; 0.2 µM): 0.758 | viability (Duvelisib; 1 µM): 0.795
